Test results as given in patent US20160115540A1, “PRODRUGS AND DRUGS” (Biogen MA Inc., priority 2013, published 2016).
Structures can show the parent of a compound that is named as a salt.

Tested on: blood and tissues
Assay: Transcriptional profiling, multi-dosing regimen, naïve mice: blood and other tissues
Assay type: in vivo
Experimental: In vivo, DMF is rapidly metabolized to monomethyl fumarate (MMF). […] Animals were exposed to CO2 and whole blood collected via cardiac puncture. Two 100 μl aliquots of whole blood were collected in 1.5 mL microcentrifuge tubes and snap frozen in liquid nitrogen. Peripheral (liver, spleen, kidney and jejunum) and CNS brain (cerebellum, hippocampus, striatum and cortex) tissues were harvested and snap frozen in liquid nitrogen, with special care taken to collect tissues of similar size and from the same location. All samples were stored at -80° C. until RNA extraction was conducted. For RNA preparation, frozen tissues were placed in 2 mL RNAse-free 96-well blocks with 1.5 mL QIAzol Lysis Reagent (QIAgen) and a 3.2 mm stainless steel bead (BioSpec Products, Bartlesville, Okla.). Tissues were disrupted for four cycles of 45 seconds in a Mini-Beadbeater (Biospec Products). RNA was extracted in chloroform and the aqueous phase was mixed with an equal volume of 70% ethanol. Extracted RNA was applied to RNeasy 96 plates and purified by the spin method according to the manufacturer's protocol (RNeasy 96 Universal Tissue Protocol, QIAgen, Hilden Germany). 50 ul of snap frozen mouse blood was re-suspended in lysis buffer with proteinase K and arrayed into deep-well plates for automated RNA extraction. RNA extractions were completed on […] (Beckman Coulter, Indianapolis, Ind.) using Agencourt RNAdvance Blood kit (Part number A35604) according to the manufacturer's specifications. RNA integrity was assessed using the HT RNA reagent kit (Part number 760410, Caliper Life Sciences, Hopkinton, Mass.) using a LabChip GX (PerkinElmer, Waltham, Mass.). RNA samples with a RQS score of >8.0 were considered high quality for downstream microarray processing. […] Two micrograms of biotin labeled […] probe were hybridized to Affymetrix GeneChip Affymetrix HT_MG-430_PM plate arrays with modified conditions as described in […] et al. Washing and staining of the hybridized arrays were completed as described in the GeneChip Expression analysis technical manual for HT plate arrays using the Genechip® Array Station (Affymetrix, Santa Clara, Calif.) with modifications as described in […] et al. The processed GeneChip® plate arrays were scanned using GeneTitan scanner (Affymetrix, Santa Clara, Calif.). Affymetrix scans were subject to quality control (QC) measures. These tests included a visual inspection of the distribution of raw signal intensities and an assessment of RNA degradation, relative log expression (RLE), and normalized unsealed standard error (NUSE). All sample scans that passed these QC metrics were included in the analysis. All CEL files were subjected to GC-content-based Robust Multi-array Average (GCRMA) normalization (version 2.20.0) (Irizarry R A, et al. Nucleic Acids Res 2003; 31:e15; Li C, et al. Genome Biol 2001; 2:[…]0032). […] Stat Appl Genet Mol Biol 2004; 3:Article3). […] Springer Science+Business Media 2005). Changes in gene expression were studied by applying a linear modeling approach to fit gene expression levels according to the defined groups of samples (e.g. DMF-, MMF-, and Vehicle-treated animals) and Bayesian posterior error analysis as implemented by Smyth (Smyth G K. Stat Appl Genet Mol Biol 2004; 3:Article3). The comparisons considered included: DMF-vs-MMF, DMF-vs-Vehicle, and MMF-vs-Vehicle. […] Very few DEGs are observed in blood and tissues derived from the central nervous system (brain, cerebellum, cortex, striatum, and spinal cord).

[1] = CEREBELLUM, 100MMF-vs-Veh, naïve multidose
[2] = LYMPH NODE, 100MMF-vs-Veh, naïve multidose
[3] = Table 13: Naïve, Single Dose (so in the source), 90 mpk MMF-vs-Vehicle, 12 h after last dosing
[4] = WHOLE BLOOD, 100MMF-vs-Veh, naïve multidose

SMILES: COC(=O)/C=C/C(=O)O [MMF, monomethyl fumarate]
- FC (1447339_PM_at (no gene symbol), WHOLE BLOOD, 100MMF-vs-Veh): 2.49
- FC 1110021J02Rik (1419892_PM_at) [1]: 1.56
- FC 9430064I24Rik (1442912_PM_at) [1]: 1.86
- FC Aox1 (1419435_PM_at) [1]: 1.54
- FC Apold1 (1441228_PM_at) [1]: 1.95
- FC Cntn2 (1456962_PM_at) [1]: 1.98
- FC D130062J21Rik (1446929_PM_at) [1]: 1.66
- FC Kat2b (1450821_PM_at) [1]: −1.68
- FC Lrrc50 (1421974_PM_at) [1]: 1.61
- FC Pcsk1n (1416965_PM_at) [1]: 1.50
- FC Prr15 (1452473_PM_at) [1]: 1.53
- FC Slc35a5 (1423457_PM_at) [1]: −1.50
- FC Sox12 (1439754_PM_at) [1]: 1.67
- FC Tm6sf2 (1425079_PM_at) [1]: 1.85
- FC probe 1442605_PM_at (no gene symbol) [1]: −1.75
- FC probe 1446131_PM_at (no gene symbol) [1]: 1.78
- FC (Csf1 1460220_PM_a_at, WHOLE BLOOD, 100MMF-vs-Veh): 1.75
- FC (Csrp3 1460318_PM_at, WHOLE BLOOD, 100MMF-vs-Veh): 1.52
- FC (Egr3 1436329_PM_at, WHOLE BLOOD, 100MMF-vs-Veh): −1.60
- FC (Gstm1 1416416_PM_x_at, WHOLE BLOOD, 100MMF-vs-Veh): 1.59
- FC Gtf2ird1 (1460364_PM_at) [2]: 1.56
- FC Npas2 (1421037_PM_at) [2]: 1.75
- FC Nqo1 (1423627_PM_at) [2]: 1.74
- FC (Lpl 1415904_PM_at, WHOLE BLOOD, 100MMF-vs-Veh): 2.65
- FC (Pla2g7 1430700_PM_a_at, WHOLE BLOOD, 100MMF-vs-Veh): 1.76
- FC (Slc27a2 1416316_PM_at, WHOLE BLOOD, 100MMF-vs-Veh): −1.93
- Number of differentially expressed genes identified: Cerebellum [3]: 15
- Number of differentially expressed genes identified: Lymph Node [3]: 3
- Number of differentially expressed genes identified: Whole blood [3]: 11
- FC (Tnfaip2 1416273_PM_at, WHOLE BLOOD, 100MMF-vs-Veh): 1.81
- FC (Tnfaip2 1438855_PM_x_at, WHOLE BLOOD, 100MMF-vs-Veh): 1.52
- FC (Trf 1425546_PM_a_at, WHOLE BLOOD, 100MMF-vs-Veh): 1.56
- FC A230048O21Rik (1458051_PM_at) [4]: 1.53
- FC Aco1 (1456728_PM_x_at) [4]: −2.14
- FC Adamts20 (1456901_PM_at) [4]: −1.69
- FC Adora2a (1460710_PM_at) [4]: 1.66
- FC Ankrd33b (1453782_PM_at) [4]: −1.64
- FC Anks1b (1460449_PM_at) [4]: −1.56
- FC Armcx2 (1456739_PM_x_at) [4]: −1.76
- FC Ascc3 (1457069_PM_at) [4]: −1.61
- FC B3galnt2 1454842_PM_a_at [4]: −1.86
- FC B3galt1 (1455234_PM_at) [4]: −1.50
- FC Cno 1459783_PM_s_at [4]: −1.77
- FC Commd3 (1454642_PM_a_at) [4]: −1.50
- FC Cycs /// Gm10053 1456071_PM_a_at [4]: −1.64
- FC D6Wsu116e (1456056_PM_a_at) [4]: −1.74
- FC Ddr1 (1456226_PM_x_at) [4]: −1.58
- FC Dnaja1 (1459835_PM_s_at) [4]: −1.60
- FC Eftud2 (1456107_PM_x_at) [4]: −1.61
- FC Eif4g2 (1452758_PM_s_at) [4]: −1.91
- FC Epc2 (1455317_PM_at) [4]: −1.56
- FC Fgd4 (1455337_PM_at) [4]: −1.52
- FC Fgfbp3 (1453006_PM_at) [4]: −1.58
- FC Gm8203 /// H2afz (1456032_PM_x_at) [4]: −1.53
- FC Gsto1 1456036_PM_x_at [4]: −1.64
- FC Gtf3c3 (1454765_PM_at) [4]: −1.82
- FC Hecw1 (1456527_PM_at) [4]: −1.55
- FC Hspa1b 1452318_PM_a_at [4]: −1.57
- FC Itga8 (1454966_PM_at) [4]: −1.51
- FC Kbtbd7 (1452700_PM_s_at) [4]: −1.52
- FC Kcnt2 (1459971_PM_at) [4]: −1.73
- FC Kctd3 1455816_PM_a_at [4]: −1.88
- FC Lasp1 (1455470_PM_x_at) [4]: −1.56
- FC Lrrtm1 (1455883_PM_a_at) [4]: −1.60
- FC Lztr1 (1455928_PM_x_at) [4]: −2.01
- FC Matn2 (1455978_PM_a_at) [4]: −2.07
- FC Mrps23 (1459806_PM_x_at) [4]: −1.56
- FC Nr3c1 (1457635_PM_s_at) [4]: −1.58
- FC Odz2 (1457273_PM_at) [4]: −1.53
- FC Olfm1 (1455796_PM_x_at) [4]: −1.65
- FC Pcdh17 (1453070_PM_at) [4]: −1.53
- FC Pik3ca (1453134_PM_at) [4]: −1.62
- FC Pitrm1 (1456577_PM_x_at) [4]: −1.68
- FC Prcp (1452190_PM_at) [4]: 1.53
- FC Ptpn12 (1455105_PM_at) [4]: −1.54
- FC Pvrl3 (1457257_PM_x_at) [4]: −2.12
- FC Qrsl1 (1456542_PM_s_at) [4]: −1.67
- FC Ralgapa2 (1455750_PM_at) [4]: −1.74
- FC Ric8 (1455809_PM_x_at) [4]: −1.56
- FC Rnf112 (1456108_PM_x_at) [4]: −1.57
- FC Rp2h (1454816_PM_at) [4]: −1.51
- FC Snx16 (1456041_PM_at) [4]: −1.78
- FC Sos2 (1452281_PM_at) [4]: −1.56
- FC Surf4 (1455822_PM_x_at) [4]: −1.56
- FC Tceb1 1452593_PM_a_at [4]: −1.52
- FC Tmed10 (1454688_PM_x_at) [4]: −1.52
- FC Tnik (1458403_PM_at) [4]: −1.58
- FC Tra2a (1454725_PM_at) [4]: −1.65
- FC Trim23 (1456089_PM_at) [4]: −1.71
- FC Ubr3 (1460455_PM_at) [4]: −1.63
- FC Wdr6 (1455940_PM_x_at) [4]: −1.50
- FC Wtap (1454805_PM_at) [4]: −1.57
- FC probe 1452426_PM_x_at (no gene symbol) [4]: −1.56
- FC probe 1455603_PM_at (no gene symbol) [4]: −1.71
- FC probe 1457494_PM_at (no gene symbol) [4]: −1.53
- FC probe 1458639_PM_at (no gene symbol) [4]: 1.51
- FC probe 1459409_PM_at (no gene symbol) [4]: 1.71
